{
  "source": "patent US10144708B2",
  "about": "“Crystalline arylalkylamine compound and process for producing the same” (MITSUBISHI TANABE PHARMA CORPORATION, priority 2013, dated 2018)",
  "type_in_all_cases": "physicochemical",
  "key": {"[1]": {"assay": "Stability test: storage of Compound (A) and salts thereof, total increase in amounts of related substance", "conditions": "for Total increase in amounts of related substance (%): storage 60° C., 1 Week; for Increase in the amounts of related substance on storage (in words): storage conditions of Table 3 (60° C., Natural or 75% RH, 1 Week)", "description": "Compound (A) and salts thereof were stored under the storage conditions described in Table 3, and the total increase in the amounts of related substance was measured."}, "[2]": {"assay": "Stability test: storage of Compound (A) and salts thereof, total increase in amounts of related substance", "conditions": "conditions of No. 16 of Table 3: 60° C., 75% RH, 1 Week"}, "[3]": {"assay": "Determination of crystal form stable at room temperature (form A and form B suspended together in chloroform, powder X-ray diffractometry)", "conditions": "equal amounts of form A and form B suspended in chloroform, stirred at room temperature overnight", "description": "Equal amounts of the form A crystal and the form B crystal of Compound (A) were added to the same container and were suspended in chloroform. The suspension was stirred at room temperature overnight. Thereafter, the suspended matter was filtered off and was analyzed by powder X-ray diffractometry to determine the type of the crystal form."}, "[4]": {"conditions": "Natural humidity, hydrochloride"}},
  "data": [
    {"compound": "C[C@@H](N[C@H]1CCN(c2ccc(CC(=O)O)cc2)C1)c1cccc2ccccc12", "note": "[Compound (A) Crystal (Form B), 4-(3S-(1R-(1-naphthyl)ethylamino)pyrrolidin-1-yl)phenylacetic acid (form B crystal)]", "values": [
      {"measurement": "Total increase in amounts of related substance (%)", "setting": "[1]; 75% RH", "result": 0.00, "unit": "%"},
      {"measurement": "Total increase in amounts of related substance (%)", "setting": "[1]; Natural humidity", "result": 0.00, "unit": "%"},
      {"measurement": "Increase in the amounts of related substance on storage (in words)", "setting": "[1]; listed as form B crystal of Compound (A)", "result": "did not show a marked increase"}
    ]},
    {"compound": "Br.C[C@@H](N[C@H]1CCN(c2ccc(CC(=O)O)cc2)C1)c1cccc2ccccc12", "note": "[Compound (A) 1HBr Crystal, 4-(3S-(1R-(1-naphthyl)ethylamino)pyrrolidin-1-yl)phenylacetic acid.monohydrobromide]", "values": [
      {"measurement": "Total increase in amounts of related substance (%)", "setting": "[1]; 75% RH", "result": 0.13, "unit": "%"},
      {"measurement": "Total increase in amounts of related substance (%)", "setting": "[1]; Natural humidity", "result": 0.21, "unit": "%"},
      {"measurement": "Increase in the amounts of related substance on storage (in words)", "setting": "[1]", "result": "increase in the amounts of related substance was observed"}
    ]},
    {"compound": "C[C@@H](N[C@H]1CCN(c2ccc(CC(=O)O)cc2)C1)c1cccc2ccccc12.Cl", "note": "[Compound (A) 1.5HCl Amorphous, 4-(3S-(1R-(1-naphthyl)ethylamino)pyrrolidin-1-yl)phenylacetic acid-1.5 hydrochloride]", "values": [
      {"measurement": "Total increase in amounts of related substance (%)", "setting": "[1]; 75% RH, hydrochloride", "result": 3.11, "unit": "%"},
      {"measurement": "Total increase in amounts of related substance (%)", "setting": "[1]; [4]", "result": 8.21, "unit": "%"},
      {"measurement": "Increase in the amounts of related substance on storage (in words)", "setting": "[1]; listed as amorphous Compound (A).1.5 hydrochloride, hydrochloride", "result": "significantly increased"}
    ]},
    {"compound": "C1CCOC1.C[C@@H](N[C@H]1CCN(c2ccc(CC(=O)O)cc2)C1)c1cccc2ccccc12.Cl", "note": "[Compound (A) 1HCl•1THF Crystal, 4-(3S-(1R-(1-naphthyl)ethylamino)pyrrolidin-1-yl)phenylacetic acid.monohydrochloride.monotetrahydrofuran solvate]", "values": [
      {"measurement": "Change of solid form on storage", "setting": "[2]", "result": "conversion thereof into Compound (A).monohydrochloride (crystal)"},
      {"measurement": "Total increase in amounts of related substance (%)", "setting": "[1]; 75% RH", "result": 1.04, "unit": "%"},
      {"measurement": "Total increase in amounts of related substance (%)", "setting": "[1]; Natural humidity", "result": 0.75, "unit": "%"},
      {"measurement": "Increase in the amounts of related substance on storage (in words)", "setting": "[1]", "result": "increase in the amounts of related substance was observed"}
    ]},
    {"compound": "C[C@@H](N[C@H]1CCN(c2ccc(CC(=O)O)cc2)C1)c1cccc2ccccc12.Cl", "note": "[Compound (A) 1.7HCl Amorphous, 4-(3S-(1R-(1-naphthyl)ethylamino)pyrrolidin-1-yl)phenylacetic acid.1.7 hydrochloride]", "values": [
      {"measurement": "Total increase in amounts of related substance (%)", "setting": "[1]; 75% RH, hydrochloride", "result": 3.06, "unit": "%"},
      {"measurement": "Total increase in amounts of related substance (%)", "setting": "[1]; [4]", "result": 8.33, "unit": "%"},
      {"measurement": "Increase in the amounts of related substance on storage (in words)", "setting": "[1]; listed as amorphous Compound (A).1.7 hydrochloride, hydrochloride", "result": "significantly increased"}
    ]},
    {"compound": "C[C@@H](N[C@H]1CCN(c2ccc(CC(=O)O)cc2)C1)c1cccc2ccccc12", "note": "[Compound (A) Crystal (Form A), 4-(3S-(1R-(1-naphthyl)ethylamino)pyrrolidin-1-yl)phenylacetic acid (form A crystal)]", "values": [
      {"measurement": "Crystal form stable at room temperature", "setting": "[3]", "result": "more stable at room temperature"},
      {"measurement": "Total increase in amounts of related substance (%)", "setting": "[1]; 75% RH", "result": 0.01, "unit": "%"},
      {"measurement": "Total increase in amounts of related substance (%)", "setting": "[1]; Natural humidity", "result": 0.03, "unit": "%"},
      {"measurement": "Increase in the amounts of related substance on storage (in words)", "setting": "[1]; listed as form A crystal of Compound (A)", "result": "did not show a marked increase"}
    ]},
    {"compound": "C[C@@H](N[C@H]1CCN(c2ccc(CC(=O)O)cc2)C1)c1cccc2ccccc12", "note": "[Compound (A) Amorphous, 4-(3S-(1R-(1-naphthyl)ethylamino)pyrrolidin-1-yl)phenylacetic acid (amorphous)]", "values": [
      {"measurement": "Total increase in amounts of related substance (%)", "setting": "[1]; 75% RH", "result": 14.16, "unit": "%"},
      {"measurement": "Total increase in amounts of related substance (%)", "setting": "[1]; Natural humidity", "result": 3.32, "unit": "%"},
      {"measurement": "Increase in the amounts of related substance on storage (in words)", "setting": "[1]; listed as amorphous Compound (A)", "result": "significantly increased"}
    ]},
    {"compound": "C[C@@H](N[C@H]1CCN(c2ccc(CC(=O)O)cc2)C1)c1cccc2ccccc12.Cl", "note": "[Compound (A) 1HCl Crystal, 4-(3S-(1R-(1-naphthyl)ethylamino)pyrrolidin-1-yl)phenylacetic acid-monohydrochloride]", "values": [
      {"measurement": "Total increase in amounts of related substance (%)", "setting": "[1]; 75% RH", "result": 1.02, "unit": "%"},
      {"measurement": "Total increase in amounts of related substance (%)", "setting": "[1]; Natural humidity", "result": 0.18, "unit": "%"},
      {"measurement": "Increase in the amounts of related substance on storage (in words)", "setting": "[1]; listed as Compound (A).monohydrochloride", "result": "increase in the amounts of related substance was observed"}
    ]}
  ]
}
